Patent US20240199618A1, “NOVEL N-ACYL-[3-SUBSTITUTED]-[8-SUBSTITUTED]-5,6-DIHYDRO-[1,2,4]TRIAZOLO[4,3-a]PYRAZINES AS SELECTIVE NK-3 RECEPTOR ANTAGONISTS, PHARMACEUTICAL COMPOSITION, METHODS FOR USE IN NK-3 RECEPTOR-MEDIATED DISORDERS” (Ogeda SA, priority 2013, published 2024)
Where two headings read alike, the source gives them in different places.

Experiments:
human NK-3 receptor [1] = target: T1, human NK-3 receptor (Homo sapiens (Human), UniProt P29371); test: Aequorin functional assay with human NK-3 receptor (antagonist testing vs NKA); format: cell-based; conditions: CHO cells, NKA at EC80 (3 nM); read-out: Functional assay: Aequorin assay with human NK-3 receptor hNK-3-AEQ (antagonist IC50)
T1 sequence (P29371 whole entry): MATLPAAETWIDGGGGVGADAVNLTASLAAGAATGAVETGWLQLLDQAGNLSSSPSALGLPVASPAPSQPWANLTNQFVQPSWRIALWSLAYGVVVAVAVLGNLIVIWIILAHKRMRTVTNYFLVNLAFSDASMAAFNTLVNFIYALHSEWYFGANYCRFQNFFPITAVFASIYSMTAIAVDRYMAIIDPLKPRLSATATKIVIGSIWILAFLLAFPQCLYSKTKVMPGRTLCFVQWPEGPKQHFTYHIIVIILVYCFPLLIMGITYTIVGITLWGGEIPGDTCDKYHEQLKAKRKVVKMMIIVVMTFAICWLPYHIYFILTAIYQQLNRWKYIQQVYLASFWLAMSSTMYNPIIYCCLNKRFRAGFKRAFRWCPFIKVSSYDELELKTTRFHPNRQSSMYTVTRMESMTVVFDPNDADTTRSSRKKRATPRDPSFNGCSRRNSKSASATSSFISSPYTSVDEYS
Method: Aequorin Assay with Human NK-3 Receptor
Changes in intracellular calcium levels are a recognized indicator of G protein-coupled receptor activity. The efficacy of compounds of the invention to inhibit NKA-mediated NK-3 receptor activation was assessed by an in vitro Aequorin functional assay. Chinese Hamster Ovary recombinant cells expressing the human NK-3 receptor and a construct that encodes the photoprotein apoaequorin were used for this assay. In the presence of the cofactor coelenterazine, apoaequorin emits a measurable luminescence that is proportional to the amount of intracellular (cytoplasmic) free calcium.
The antagonist activity of compounds of the invention is measured following pre-incubation (3 minutes) of the compound (at various concentrations) with the cells, followed by addition of the reference agonist (NKA) at a final concentration equivalent to the EC80 (3 nM) and recording of emitted light (FDSS 6000 Hamamatsu) over the subsequent 90-second period. The intensity of the emitted light is integrated using the reader software. Compound antagonist activity is measured based on the concentration-dependent inhibition of the luminescence response to the addition of Neurokinin A.

plasma protein = test: Determination of plasma protein binding (equilibrium dialysis, RED); format: in vitro ADME; conditions: 4 hours at 37° C.
Text: Determination of plasma protein binding The pharmacokinetic and pharmacodynamic properties of chemicals/drugs are largely a function of the reversible binding of chemicals to plasma or serum proteins. […] Consequently, the extent of the plasma protein binding (PPB) of a compound influences its action as well as its distribution and elimination.
The determination of plasma protein binding (PPB) of a compound is enabled by equilibrium dialysis, an accepted and standard method for reliable estimation of the non-bound drug fraction in plasma. RED (Rapid Equilibrium Dialysis) device insert is made of two side-by-side chambers separated by an O-ring-sealed vertical cylinder of dialysis membrane (MWCO ˜8,000). […] After 4 hours incubation at 37° C. under shaking, an aliquot is removed from each chamber and analyzed by a LC-MS/MS procedure enables the determination of both free and bound drug.
The “free fraction” may be calculated as 100%−% rPPB (i.e. the complementary percentage of that disclosed in Table 4, corresponding to the drug concentration that is unbound and therefore available to engage biological target and elicit pharmacological activity).

human NK-3 receptor [2] = target: T1, human NK-3 receptor; test: 3H-SB222200 binding competition assay with human NK-3 receptor
Method: The affinity of compounds of the invention for the human NK-3 receptor was determined by measuring the ability of compounds of the invention to competitively and reversibly displace a well-characterized NK-3 radioligand in a concentration-dependent manner.
^3H-SB222200 Binding Competition Assay with Human NK-3 Receptor
Membranes were prepared from Chinese hamster ovary recombinant cells stably expressing the human NK-3 receptor. The membranes were incubated with 5 nM ^3H-SB222200 (ARC) in a HEPES 25 mM/NaCl 0.1M/CaCl2 1 mM/MgCl2 5 mM/BSA 0.5%/Saponin 10 μg/ml buffer at pH 7.4 and various concentrations of compounds of the invention. The amount of ^3H-SB222200 bound to the receptor was determined after filtration by the quantification of membrane associated radioactivity using the TopCount-NXT reader (Packard).

human NK-2 receptor = human NK-2 receptor (Homo sapiens (Human), UniProt P21452); test: Selectivity assay: [125I]-Neurokinin A binding, human NK-2 receptor; conditions: 0.1 nM [125I]-Neurokinin A, CHO membranes; read-out: hNK-2 (Ki)
human NK-2 receptor, sequence (P21452 whole entry): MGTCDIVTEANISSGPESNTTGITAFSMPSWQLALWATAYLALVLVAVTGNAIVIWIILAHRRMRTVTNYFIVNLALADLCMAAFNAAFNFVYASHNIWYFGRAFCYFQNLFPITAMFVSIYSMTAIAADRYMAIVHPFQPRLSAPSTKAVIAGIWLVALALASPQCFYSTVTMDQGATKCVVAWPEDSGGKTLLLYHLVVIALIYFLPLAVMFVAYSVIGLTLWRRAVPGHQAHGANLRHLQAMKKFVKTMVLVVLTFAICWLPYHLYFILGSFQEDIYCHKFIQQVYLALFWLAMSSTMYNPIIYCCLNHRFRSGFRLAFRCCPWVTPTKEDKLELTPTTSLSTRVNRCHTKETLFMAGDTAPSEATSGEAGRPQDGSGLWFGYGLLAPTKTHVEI
Method: The affinity of compounds of the invention for the NK-2 receptor was evaluated in CHO recombinant cells which express the human NK-2 receptor. Membrane suspensions were prepared from these cells. […] Binding assays were performed in a 25 mM HEPES/1 mM CaCl2)/5 mM MgCl2/0.5% BSA/10 μg/ml saponin, at pH 7.4. […] The radioactivity retained on the filters was measured by using the TopCount-NXT reader (Packard).

human NK-1 receptor = human NK-1 receptor (Homo sapiens (Human), UniProt P25103); test: Selectivity assay: [3H] substance P binding, human NK-1 receptor; conditions: 2 nM [3H] substance P, CHO membranes; read-out: hNK-1 (Ki)
human NK-1 receptor, sequence (P25103 whole entry): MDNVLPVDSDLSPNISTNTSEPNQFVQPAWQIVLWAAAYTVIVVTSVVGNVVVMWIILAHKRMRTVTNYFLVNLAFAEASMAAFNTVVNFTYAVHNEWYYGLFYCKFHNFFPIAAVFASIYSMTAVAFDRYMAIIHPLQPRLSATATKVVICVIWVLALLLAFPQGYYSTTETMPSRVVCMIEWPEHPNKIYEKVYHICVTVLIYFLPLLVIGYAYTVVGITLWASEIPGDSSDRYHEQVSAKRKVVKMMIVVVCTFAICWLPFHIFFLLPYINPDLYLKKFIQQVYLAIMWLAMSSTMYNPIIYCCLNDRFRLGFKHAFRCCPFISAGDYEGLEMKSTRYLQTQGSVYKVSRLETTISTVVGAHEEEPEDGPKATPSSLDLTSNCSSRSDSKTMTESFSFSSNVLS
Method: Selectivity of the compounds of the invention was determined over the other human NK receptors, namely NK-1 and NK-2 receptors.
The affinity of compounds of the invention for the NK-1 receptor was evaluated in CHO recombinant cells which express the human NK-1 receptor. Membrane suspensions were prepared from these cells. The following radioligand: [^3H] substance P (PerkinElmer Cat #NET111520) was used in this assay. Binding assays were performed in a 50 mM Tris/5 mM MnCl2/150 mM NaCl/0.1% BSA at pH 7.4. Binding assays consisted of 25 μl of membrane suspension (approximately 5 μg of protein/well in a 96 well plate), 50 μl of compound or reference ligand (Substance P) at increasing concentrations (diluted in assay buffer) and 2 nM [^3H] substance P. The plate was incubated 60 min at 25° C. in a water bath and then filtered over GF/C filters (Perkin Elmer, 6005174, presoaked in 0.5% PEI for 2 h at room temperature) with a Filtration unit (Perkin Elmer). The radioactivity retained on the filters was measured by using the TopCount-NXT reader (Packard).

[3] = tested on: circulating levels of luteinizing hormone (LH); test: Castrated male rat model, circulating luteinizing hormone (LH); format: in vivo; conditions: single oral dose less than or equal to 30 mg/kg, p<0.05
Method: Castrated Male Rat Model to Assess the Effect of Compound of Invention on Circulating Levels of Luteinizing Hormone (LH)
The effect of compounds of the invention to inhibit luteinizing hormone (LH) secretion is determined by the following biological studies.
In humans and rodents, castration is well-precedented to permit heightened, persistent GnRH signaling and consequent elevation of circulating LH. Thus, a castrated rat model is used to provide a broad index for measurement of LH inhibition as a marker of test compound inhibition of the GnRH signaling pathway.
Castrated adult male Sprague-Dawley (SD) rats (150-175 g,) were purchased from Janvier (St Berthevin, France). All animals were housed 2 per cage in a temperature-controlled room (22±2° C.) and 50±5% relative humidity with a 12 hour/12 hour light/dark cycles (lights off at […]). The animals were allowed 3 weeks of postoperative recovery prior to study. Animals were handled on a daily basis. Standard diet and tap water were provided ad libitum. Animal cage litters were changed once a week. On the study day, animals were acclimated to the procedure room for a period of one hour prior to the initiation of the experiment.
Compounds of the invention were formulated in 0.5% methyl cellulose.
After basal sampling (TO) a single dose of compounds of the invention or vehicle was administrated orally to rats. Blood samples were then collected at several time points post dosing (45, 90, 150, 300 and 420 minutes). Blood samples were obtained via tail vein bleed, drawn into EDTA-containing tubes and centrifuged immediately. Plasma samples were collected and stored in a −80° C. freezer until assayed. Serum LH levels were determined using radioimmunoassay kit from RIAZEN—Rat L H, Zentech (Liege, Belgium). Baseline was defined as the initial basal blood sample.

[4] = Table 2, 5 nM 3H-SB222200, CHO membranes, read-out: Competitive binding assay with human NK-3 receptor hNK-3 (Ki)
[5] = Table 3 (selectivity table), read-out: hNK-3 (Ki)

Row | Compound | IC50 (human NK-3 receptor [1]) [nM] | Exposure (% rPPB), bound drug fraction to plasma protein (plasma protein) [%] | Ki (human NK-3 receptor [2]; [4]) [nM] | Ki (human NK-3 receptor [2]; [5]) [nM] | Ki (human NK-2 receptor) [nM] | Ki (human NK-1 receptor) [nM] | circulating LH levels [3]
1 | Cc1nsc(-c2nnc3n2CCN(C(=O)c2ccccc2)[C@@H]3C)n1 [Compound 20, (R)-(8-methyl-3-(3-methyl-1,2,4-thiadiazol-5-yl)-5,6-dihydro-[1,2,4]triazolo[4,3-a]pyrazin-7(8H)-yl)(phenyl)methanone] | 93 | – | 60 | 60 | > 30000 | > 30000 | significantly suppressed
2 | Cc1noc(-c2nnc3n2CCN(C(=O)c2ccc(F)cc2)[C@@H]3C)n1 [Compound 28, (R)-(4-fluorophenyl)(8-methyl-3-(3-methyl-1,2,4-oxadiazol-5-yl)-5,6-dihydro-[1,2,4]triazolo[4,3-a]pyrazin-7(8H)-yl)methanone] | 160 | 12 | 110 | 110 | > 30000 | > 30000 | –
3 | Cc1nsc(-c2nnc3n2CCN(C(=O)c2ccc(C#N)cc2)[C@@H]3C)n1 [Compound 29, (R)-4-(8-methyl-3-(3-methyl-1,2,4-thiadiazol-5-yl)-5,6,7,8-tetrahydro-[1,2,4]triazolo[4,3-a]pyrazine-7-carbonyl)benzonitrile] | 170 | 10 | 150 | 150 | > 30000 | > 30000 | –
4 | C[C@@H]1c2nnc(-c3nc(C(C)(F)F)no3)n2CCN1C(=O)c1ccc(F)cc1 [Compound 43, (R)-(3-(3-(1,1-difluoroethyl)-1,2,4-oxadiazol-5-yl)-8-methyl-5,6-dihydro-[1,2,4]triazolo[4,3-a]pyrazin-7(8H)-yl)(4-fluorophenyl)methanone] | 136 | 47 | 59 | 59 | > 30000 | > 30000 | –
5 | C[C@@H]1c2nnc(-c3nc(CC(F)(F)F)no3)n2CCN1C(=O)c1ccc(F)cc1 [Compound 44, (R)-(4-fluorophenyl)(8-methyl-3-(3-(2,2,2-trifluoroethyl)-1,2,4-oxadiazol-5-yl)-5,6-dihydro-[1,2,4]triazolo[4,3-a]pyrazin-7(8H)-yl)methanone] | 204 | 31 | 45 | 45 | > 30000 | > 30000 | –
6 | CC(F)c1noc(-c2nnc3n2CCN(C(=O)c2ccc(F)cc2)[C@@H]3C)n1 (stereo partly drawn) [Compound 45, ((8R)-3-(3-(1-fluoroethyl)-1,2,4-oxadiazol-5-yl)-8-methyl-5,6-dihydro-[1,2,4]triazolo[4,3-a]pyrazin-7(8H)-yl)(4-fluorophenyl)methanone] | 244 | 31 | 101 | 101 | > 30000 | > 30000 | –

Now those with a lower IC50 (human NK-3 receptor [1]), led by results:

Row | IC50 (human NK-3 receptor [1]) [nM] | Exposure (% rPPB), bound drug fraction to plasma protein (plasma protein) [%] | Ki (human NK-3 receptor [2]; [4]) [nM] | Ki (human NK-3 receptor [2]; [5]) [nM] | Ki (human NK-2 receptor) [nM] | Ki (human NK-1 receptor) [nM] | Compound | circulating LH levels [3]
7 | 16 | 67 | 11 | 11 | 7500 | 10300 | Cc1nsc(-c2nnc3n2CCN(C(=O)c2ccc(Cl)c(Cl)c2)[C@@H]3C)n1 [Compound 1, (R)-(3,4-dichlorophenyl)(8-methyl-3-(3-methyl-1,2,4-thiadiazol-5-yl)-5,6-dihydro-[1,2,4]triazolo[4,3-a]pyrazin-7(8H)-yl)methanone] | significantly suppressed
8 | 12 | 47 | 15 | 15 | > 30000 | 23800 | CCc1nsc(-c2nnc3n2CCN(C(=O)c2ccc(F)cc2)[C@@H]3C)n1 [Compound 2, (R)-(3-(3-ethyl-1,2,4-thiadiazol-5-yl)-8-methyl-5,6-dihydro-[1,2,4]triazolo[4,3-a]pyrazin-7(8H)-yl)(4-fluorophenyl)methanone] | significantly suppressed
9 | 74 | 19 | 88 | 88 | > 30000 | > 30000 | Cc1nsc(-c2nnc3n2CCN(C(=O)c2ccccc2C)[C@@H]3C)n1 [Compound 26, (R)-(8-methyl-3-(3-methyl-1,2,4-thiadiazol-5-yl)-5,6-dihydro-[1,2,4]triazolo[4,3-a]pyrazin-7(8H)-yl)(o-tolyl)methanone] | –
10 | 5 | 94 | 7 | 7 | – | 40000 | CCc1noc(-c2nnc3n2CCN(C(=O)c2ccc(-c4cccs4)cc2)[C@@H]3C)n1 [Compound 30, (R)-(3-(3-ethyl-1,2,4-oxadiazol-5-yl)-8-methyl-5,6-dihydro-[1,2,4]triazolo[4,3-a]pyrazin-7(8H)-yl)(4-(thiophen-2-yl)phenyl)methanone] | significantly suppressed
11 | 39 | 16 | 48 | 48 | > 30000 | > 30000 | C[C@@H]1c2nnc(-c3nc(C(F)F)ns3)n2CCN1C(=O)c1ccc(F)cc1 [Compound 42, (R)-(3-(3-(difluoromethyl)-1,2,4-thiadiazol-5-yl)-8-methyl-5,6-dihydro-[1,2,4]triazolo[4,3-a]pyrazin-7(8H)-yl)(4-fluorophenyl)methanone] | –
